Experimental findings from ChEMBL document CHEMBL4373717, “Coumarin-containing hybrids and their anticancer activities” (Eur J Med Chem, 2019) are described below.

SMILES strings stand for the structures.

Holding throughout (type): functional, cell-based
In one experiment the test system is HepG2. In words: Anticancer activity against human HepG2 cells by MTT assay. Background: Tetrazolium assays rely on reduction of a dye to a coloured formazan, in cell work by metabolically active cells.
Another experiment concerns 769-P. The experiment can be described thus: Anticancer activity against human 769-P cells by MTT assay.
The test system of experiment [1] is MDA-MB-231. The experiment can be described thus: Anticancer activity against human MDA-MB-231 cells by MTT assay.
Experiment [2] has as its system MCF7. In words: Cytotoxicity against human MCF7 cells assessed as reduction in cell viability after 48 hrs by MTT assay. To be noted: MCF7, 48 h.
In another experiment the test system is HeLa. The experiment can be described thus: Cytotoxicity against human HeLa cells assessed as reduction in cell viability after 68 hrs by MTT assay.
Experiment [3] deals with A549. The experiment can be described thus: Cytotoxicity against human A549 cells assessed as reduction in cell viability after 68 hrs by MTT assay. To be noted: A549, 68 h.
Experiment [4] relates to MCF7. In words: Cytotoxicity against human MCF7 cells assessed as reduction in cell viability after 68 hrs by MTT assay. The conditions noted are these: MCF7, 68 h.
In another experiment the test system is K562. The experiment can be described thus: Cytotoxicity against human K562 cells assessed as reduction in cell viability after 68 hrs by MTT assay. To be noted: K562, 68 h.
Experiment [5] concerns A549. In words: Cytotoxicity against human A549 cells assessed as reduction in cell viability after 24 hrs by MTT assay. The conditions noted are these: A549, 24 h.
Experiment [6] has as its system MDA-MB-231. In words: Cytotoxicity against human MDA-MB-231 cells assessed as reduction in cell viability after 24 hrs by MTT assay.
The test system of experiment [7] is A549. The experiment can be described thus: Anticancer activity against human A549 cells by MTT assay.

In general, IC50 refers to the point on the concentration scale where inhibition reaches its midpoint. `O=c1ccc2ccc(OCCCCCCCCCCn3cc(COc4ccc5ccc(=O)oc5c4)nn3)cc2o1`: the IC50 in the experiment with HepG2, with 769-P and with MDA-MB-231 [1] was 0.383 to 13.6 µM throughout.

For `Cc1cc(-c2cc3ccccc3oc2=O)n(-c2nc(-c3ccccc3)cs2)n1`, in the experiment on MCF7 [2], the IC50 is 4.03 to 31.5 µM.

Consider `COc1ccc(OC)c(NC(=O)Nc2ccc(Cc3c(C)c4cc(C(C)(C)C)c(O)cc4oc3=O)cn2)c1`, for which the 50% inhibitory concentration (IC50) with HeLa, in the experiment on A549 [3], in the experiment with MCF7 [4] and in the experiment on K562 was 1660 to 19400 nM in each case.

On to `O=c1oc2ccccc2cc1-c1cc(-c2ccc(Cl)cc2)nc(Cc2ccc(F)cc2)n1`, for which the 50% inhibitory concentration (IC50) is 2510 nM in the experiment on A549 [5] and 2510 nM in the experiment on MDA-MB-231 [6] (Homo sapiens, MDA-MB-231, 24 h).

Turning to `CC(=O)c1ccc(NC(=O)Nc2ccc(Cc3c(C)c4cc(C(C)(C)C)c(O)cc4oc3=O)cn2)cc1`, the 50% inhibitory concentration (IC50) in the experiment with HeLa, in the experiment on A549 [3], with MCF7 [4] and in the experiment on K562 was 1660 to 19400 nM throughout.

For `Cc1ccccc1NC(=O)c1ccc(-n2cc(COc3cc(=O)oc4ccccc34)nn2)cc1`, the half-maximal inhibitory concentration (IC50) in the experiment on MDA-MB-231 [6] (mda-mb-231) was 30 to 91600 nM.

Regarding `Cc1cc(-c2cc3ccccc3oc2=O)n(-c2nc(-c3ccc(Br)cc3)cs2)n1`, the half-maximal inhibitory concentration (IC50) in the experiment with MCF7 [2] fell in the range of 4.03 to 31.5 µM.

For `O=C(Nc1ccc(F)c(Cl)c1)c1ccc(-n2cc(COc3cc(=O)oc4ccccc34)nn2)cc1`, the IC50 in the experiment with MDA-MB-231 [6] (mda-mb-231) was 30 to 91600 nM.

For `O=c1ccc2ccc(OCCCCn3cc(COc4ccc5ccc(=O)oc5c4)nn3)cc2o1`, the IC50 with HepG2, in the experiment with 769-P and with MDA-MB-231 [1] was 0.383 to 13.6 µM throughout.

In the case of `Cc1c(Cc2ccc(NC(=O)Nc3ccccc3)nc2)c(=O)oc2cc(O)c(C(C)(C)C)cc12`, the IC50 in the experiment with HeLa, with A549 [3], in the experiment with MCF7 [4] and with K562 was 1660 to 19400 nM in each case.

With `Cc1cc(-c2cc3cc(Cl)ccc3oc2=O)n(-c2nc(-c3ccccc3)cs2)n1`, in the experiment with MCF7 [2], the IC50 is 4.03 to 31.5 µM.

Take `COc1ccc(NC(=O)c2ccc(-n3cc(COc4cc(=O)oc5ccccc45)nn3)cc2)cc1`: the IC50 in the experiment with MDA-MB-231 [6] (mda-mb-231) lay within 30 to 91600 nM.

As to `Cc1cc(=O)oc2cc(OCc3cn(CCOc4ccc5ccc(=O)oc5c4)nn3)ccc12`, the IC50 with HepG2, with 769-P and in the experiment on MDA-MB-231 [1] was 0.383 to 13.6 µM throughout.

For the compound `Cc1cc(=O)oc2cc(OCc3cn(CCCCCCCCCCCCOc4ccc5ccc(=O)oc5c4)nn3)ccc12`, the IC50 with HepG2, in the experiment with 769-P and in the experiment on MDA-MB-231 [1] was 0.383 to 13.6 µM throughout.

Consider `Cc1cc(-c2cc3cc(Br)ccc3oc2=O)n(-c2nc(-c3ccc(Br)cc3)cs2)n1`, for which, in the experiment on MCF7 [2], the IC50 lay in the range of 4.03 to 31.5 µM.

Turning to `O=c1ccc2ccc(OCCCCCCCn3cc(COc4ccc5ccc(=O)oc5c4)nn3)cc2o1`, the IC50 in the experiment on HepG2, in the experiment with 769-P and in the experiment with MDA-MB-231 [1] was 0.383 to 13.6 µM throughout.

As for `O=c1ccc2ccc(OCCCCCCCCCn3cc(COc4ccc5ccc(=O)oc5c4)nn3)cc2o1`, the half-maximal inhibitory concentration (IC50) in the experiment with HepG2, in the experiment with 769-P and in the experiment with MDA-MB-231 [1] was 0.383 to 13.6 µM in each case.

As to `O=c1ccc2ccc(OCCCCCCCCCCCCn3cc(COc4ccc5ccc(=O)oc5c4)nn3)cc2o1`, the IC50 with HepG2, in the experiment with 769-P and in the experiment with MDA-MB-231 [1] was 0.383 to 13.6 µM throughout.

Consider `Cc1cc(=O)oc2cc(OCc3cn(CCCCCCCOc4ccc5ccc(=O)oc5c4)nn3)ccc12`, for which the IC50 in the experiment with HepG2, in the experiment with 769-P and in the experiment on MDA-MB-231 [1] was 0.383 to 13.6 µM each time.

Consider `O=C(Nc1ccccc1Br)c1ccc(-n2cc(COc3cc(=O)oc4ccccc34)nn2)cc1`, for which the IC50 in the experiment on MDA-MB-231 [6] (mda-mb-231) was 30 to 91600 nM.

On to `Cc1ccc(NC(=O)c2ccc(-n3cc(COc4cc(=O)oc5ccccc45)nn3)cc2)c(C)c1`, for which the IC50 in the experiment with MDA-MB-231 [6] (mda-mb-231) lay within 30 to 91600 nM.

In the case of `Cc1ccc2c(C3C4=C(CCCC4=O)OC3c3cc(=O)oc4ccc(C)cc34)cc(=O)oc2c1` (centres undefined), the 50% inhibitory concentration (IC50) in the experiment with A549 [7] was in the range of 420 to 430 nM.

On to `O=C(Nc1ccc(Br)cc1)c1ccc(-n2cc(COc3cc(=O)oc4ccccc34)nn2)cc1`, for which, in the experiment with MDA-MB-231 [6] (mda-mb-231), the IC50 was 30 to 91600 nM.

In the case of `COc1cccc(-c2cc(-c3cc4ccccc4oc3=O)nc(Cc3ccc(F)cc3)n2)c1`, the IC50 was in the range of 2150 to 28600 nM in the experiment with A549 [5] and 2150 to 28600 nM in the experiment with MDA-MB-231 [6] (Homo sapiens, MDA-MB-231, 24 h).

In the case of `Cc1cc(-c2cc3cc(Cl)ccc3oc2=O)n(-c2nc(-c3ccc(Br)cc3)cs2)n1`, in the experiment with MCF7 [2], the IC50 is 4.03 to 31.5 µM.

Turning to `Cc1c(Cl)cccc1NC(=O)c1ccc(-n2cc(COc3cc(=O)oc4ccccc34)nn2)cc1`, the IC50 with MDA-MB-231 [6] (mda-mb-231) is 30 to 91600 nM.

With `Cc1ccc2oc(=O)cc(C3OC4=C(C(=O)CCC4)C3c3cc(=O)oc4ccc(C)cc34)c2c1` (centres undefined), the IC50 with A549 [7] lay in the range of 420 to 430 nM.

Consider `CC(=O)O[C@H]1C(=O)[C@@]2(C)[C@H]([C@H](OC(=O)c3ccccc3)[C@]3(O)C[C@H](OC(=O)[C@H](O)[C@@H](NC(=O)c4ccccc4)c4ccccc4)C(C)=C1C3(C)C)[C@]1(OC(C)=O)CO[C@@H]1C[C@@H]2O` [PACLITAXEL], for which the concentration for half-maximal inhibition (IC50) in the experiment on HeLa is 3.3 to 14 nM; with A549 [3], 3.3 to 14 nM; with A549 [7] it was 350 nM; with MCF7 [4], 3.3 to 14 nM; in the experiment on K562, 3.3 to 14 nM.
